Results as given in patent US4701440A (Hoechst Aktiengesellschaft, priority 1983, dated 1987).

Experiments:
[1] = cited from earlier work
[2] = biological test, activity compared with unmodified insulin

Row | Substance | biological activity compared with unmodified insulin [2] | further results
1 | Porcine insulin-Arg^B31 OH |  | activity relative to unmodified porcine insulin ([1]; according to Chance, Excerpta Medica Int. Congress Series No. 231): 62%
2 | insulin-Arg^B31 -Arg^B32 -OH | approximately the same level as that of unmodified insulin | 
3 | insulin-Arg^B31 -OH | approximately the same level as that of unmodified insulin | 
4 | proinsulin: proinsulin, insulin precursor containing the C-peptide |  | biological activity as fraction of that of insulin ([1]; intact proinsulin vs insulin): about 1/8
